What was measured:
protein kinase C (PKC) = conditions: cited from earlier work
[1] = tested on: human glioma cell lines A172, U563 or U251; conditions: cited from earlier work
[2] = tested on: nitric oxide synthase (NOS); conditions: C6 glial cells; cited from earlier work
EGFR = conditions: monolayers at the IC20 doses; cited from earlier work
[3] = tested on: human glioblastoma spheroids; conditions: cited from earlier work
[4] = tested on: human glioblastoma cell lines; conditions: read-out: IC20 for monolayer growth inhibition; cited from earlier work
caspase-3-like proteases = test: Caspase activity assay in lysates of treated cells (Ac-DEVD-pNA substrate); assay type: cell-based, human; conditions: for CDDP-induced caspase activation on co-treatment with tyrphostin: data not shown; for caspase-3-like protease activity relative to basal activity: 48 hours after CDDP 5 μg/ml
Protocol: (§1) (A) Total cell lysates were prepared 2 days after treatment with 5 μg/ml CDDP. Samples were assayed for protease activity using the peptide substrate, Ac-DEVD-pNA. […] Cells were also treated with the plasma membrane-soluble caspase inhibitor Z-Asp-CH2DCB (200 μM) prior to and during CDDP treatment. □, U87MG; ▪, U87MG.ΔEGFR;_, U87MG.DK;_, U87MG.wtEGFR. […] (B) Proteolytic cleavage of PARP after CDDP treatment. For each sample, 20 μg total clarified protein lysate was loaded on to SDS-PAGE gels, electrophoresed, transferred to membranes and probed with anti-PARP monoclonal antibodies. FL, full-length; CF, cleaved fragment.
Cells were lysed in lysis buffer (ApoAlert, Clontech, Palo Alto, Calif.) for 15 min on ice, followed by centrifugation. Protease assays included 89 μl of reaction buffer (100 mM HEPES, pH 7.5, 20% v/v glycerol, 6 mM dithiothreitol, and 0.5 mM EDTA), I μl of 10 mM acetyl-Asp-Glu-Val-Asp-p-nitroanilide (Ac-DEVD-pNA) in DMSO (California Peptide Research, Inc., Napa, Calif.), and 10 μl of equal protein cell lysate. Samples were incubated at 37° C., and enzyme-catalyzed release of p-nitroanilide (pNA) was monitored at […] for 1 h in a microtiter plate reader (Molecular Devices Inc., Sunnyvale, Calif.). Aliquots of cell lysates diluted into the reaction buffer were first incubated with 10 μM caspase-3-like protease inhibitor, Ac-Asp-Glu-Val-Asp-aldehyde (Ac-DEVD-CHO) (Bachem, Torrance, Calif.), at 37° C. for 30 min. Values for picomoles of pNA released were calculated from those observed in OD405 values using a standard curve of pNA. One unit of protease activity was defined as the amount of enzyme required to release 1 pmol pNA/min at 37° C. For in vivo caspase inhibition studies, cells were cultured in the presence of peptide caspase inhibitor Z-Asp-CH2-DCB (Bachem).

glioma cell = conditions: cited from earlier work; for serum-driven cell growth: dose-dependent
glioma = conditions: pre-treatment with LTC4; cited from earlier work
U87MG.ΔEGFR cells [5] = test: In situ TUNEL labeling of apoptotic DNA fragmentation; assay type: cell-based, human
Protocol: Cells were seeded on cover slips, treated with 5 μg/ml of CDDP for 2 days, and then TUNEL assays were performed. The percent of TUNEL-positive cells induced by CDDP treatment was assessed by counting more than 400 cells per coverslip. □, U87MG; ▪, U87MG.ΔEGFR;_, U87MG.DK;_, U87MG.wtEGFR.
For each sample, 20 μg of lysate was used. […] For control, the vehicle (DMSO) was used. Apoptosis rate determined by TUNEL assays of triplicate cover slips.
Apoptotic cells were detected by use of terminal deoxynucleotidyl transferase mediated nick end labeling (TUNEL) of apoptotic DNA strand breaks as described (16). Apoptotic index was calculated as a ratio of apoptotic cell number to total tumor cell number within the areas by counting more than 400 cells in each coverslip.

U87MG.ΔEGFR cells [6] = test: Cell survival (colony forming efficiency) assay; assay type: cell-based, human; conditions: drug 1 hr, then 10 to 12 days in fresh medium; colony count
Protocol: Western blot analysis of expression (lower) and auto-phosphorylation (upper) of wt EGFR (♦) and ΔEGFR (●) in U87MG, U87MG.ΔEGFR, U87MG.DK and U87MG.wtEGFR cells grown in media containing 10% serum. Low and similar levels of endogenous wt EGFR expression was also detected in U87MG, U87MG.ΔEGFR and U87MG.DK at longer exposures (data not shown). […] Cells were plated in triplicate 60-mm dishes and treated with media containing various concentrations of CDDP for 1 hr, followed by incubation with fresh media for 10 to 12 days. Numbers of colonies were counted after Giemsa staining. Results were reproduced in four independent experiments; bars, SID.
To determine the level of resistance of the cells to chemotherapeutic agents, colony forming efficiency assays were performed as described (20). Briefly, 400 or 700 cells were seeded in triplicate into dishes having a 60-mm diameter. On the next day cells were treated with various concentrations of CDDP for 1 hr or Taxol or vincristine for 2 hr, and then further incubated for 10 to 12 days in the fresh medium. The cells were fixed in methanol, stained with Giemsa solution (Sigma) and the number of colonies containing greater than 50 cells were counted. The survival fraction was calculated as the ratio of the colony-forming efficiency of drug-treated and untreated cells. […]

PARP = test: Western blot of proteolytic cleavage of PARP; assay type: cell-based, human
Protocol: as §1
Cell lysates were prepared in RIPA buffer (16), equal protein per sample was separated on SDS-polyacrylamide gels, and transferred to nitrocellulose membranes (BioRad, Hercules, Calif.). Proteins on the membranes were probed with antibodies to Bcl-XL (Transduction, Lexington, Ky.), poly(ADP-ribose) polymerase (PARP) (C2-10; Enzyme System Products, Dublin, Calif.), EGFR (C13) (15), or phosphotyrosine (4G10, Upstate Biotechnology, Lake Placid, N.Y.), and detected by chemiluminescence (Amersham).

Bcl-XL = test: Western blot of Bcl-XL expression; assay type: cell-based, human
Protocol: Total cell lysates were prepared at the various time points indicated. For each sample, 20 μg of lysate protein was used. Results were reproduced in three independent experiments. […] For each sample, 20 μg of lysate was used. […] For control, the vehicle (DMSO) was used. Apoptosis rate determined by TUNEL assays of triplicate cover slips. […] Cell lysates were prepared in RIPA buffer (16), equal protein per sample was separated on SDS-polyacrylamide gels, and transferred to nitrocellulose membranes (BioRad, Hercules, Calif.). Proteins on the membranes were probed with antibodies to Bcl-XL (Transduction, Lexington, Ky.), poly(ADP-ribose) polymerase (PARP) (C2-10; […]

tumors = conditions: EGF plus cisplatin versus cisplatin alone; cited from earlier work
[7] = tested on: malignant glioma cell lines; conditions: cited from earlier work
U-87 glioma xenografts = conditions: continuous intraperitoneal infusion; cited from earlier work
caspase-3-like protease = test: Inhibition of caspase activity by pre-incubating cell lysates with inhibitor; assay type: biochemical, human; conditions: 10 μM, lysates pre-incubated at 37° C. for 30 min
Protocol: as §1
Cells were lysed in lysis buffer (ApoAlert, Clontech, Palo Alto, Calif.) for 15 min on ice, followed by centrifugation. Protease assays included 89 μl of reaction buffer (100 mM HEPES, pH 7.5, 20% v/v glycerol, 6 mM dithiothreitol, and 0.5 mM EDTA), I μl of 10 mM acetyl-Asp-Glu-Val-Asp-p-nitroanilide (Ac-DEVD-pNA) in DMSO (California Peptide Research, Inc., Napa, Calif.), and 10 μl of equal protein cell lysate. Samples were incubated at 37° C., and enzyme-catalyzed release of p-nitroanilide (pNA) was monitored at […] for 1 h in a microtiter plate reader (Molecular Devices Inc., Sunnyvale, Calif.). […] Values for picomoles of pNA released were calculated from those observed in OD405 values using a standard curve of pNA. […]

CO[C@@H]1[C@H](N(C)C(=O)c2ccccc2)C[C@H]2O[C@]1(C)n1c3ccccc3c3c4c(c5c6ccccc6n2c5c31)C(=O)NC4 [CGP 41 251]
PKC activity (protein kinase C (PKC)): reduced
proliferation rate [1]: reduced

CO[C@H]1[C@@H](OC)C[C@H](C)[C@@H](OC)C2=CC(=O)C=C(NC(=O)/C(C)=C/C=C\[C@H](OC)[C@@H](OC(N)=O)/C(C)=C/[C@@H]1C)C2=O [herbimycin A]
NOS induced by LPS and IFN-gamma [2]: suppressed

N#CC(C#N)=Cc1cc(O)c(O)c(O)c1 [tyrphostin A25]
EGFR-associated tyrosine phosphorylation (EGFR): no change
invasion ([3]; tyrphostin A25 at 3 μmol/L, third cell line): reduced invasion
IC20 [4]: 3 µM

COc1cc2ncnc(Nc3cccc(Br)c3)c2cc1OC [AG1517]
CDDP-induced caspase activation on co-treatment with tyrphostin (caspase-3-like proteases; U87MG.ΔEGFR cells): enhanced

COc1ccc(/C=C(\C#N)c2cccnc2)cc1OC [RG 13022]
EGF- and PDGF-induced DNA synthesis (glioma cell; 50 μmol/L): completely blocked
DNA synthesis induced by growth factors (EGF, PDGF; serum for the tyrphostins) (glioma cell): dose-dependently inhibit
cytotoxicity to the cells (glioma cell): no cytotoxic side effects
selectivity in blocking either EGF or PDGF signaling (glioma cell): no selectivity
serum-driven cell growth (glioma cell): inhibit

O=c1c(-c2ccc(O)cc2)coc2cc(O)cc(O)c12 [genistein]
EGFR-associated tyrosine phosphorylation (EGFR): no change
DNA synthesis induced by growth factors (EGF, PDGF; serum for the tyrphostins) (glioma cell): inhibited
cytotoxicity to the cells (glioma cell): cytotoxic
infiltration ([3]; genistein at 10 μmol/L): completely inhibited
PKC activity (protein kinase C (PKC)): dose dependently reduced
IC20 [4]: 10 µM
proliferation rate [1]: inhibited

CCCCC/C=C\C\C=C/C=C/C=C/[C@@H](SC[C@H](NC(=O)CC[C@H](N)C(=O)O)C(=O)NCC(=O)O)[C@@H](O)CCCC(=O)O [LTC4]
survival of CDDP-treated animals (glioma): increased survival to a statistically significant degree

[NH2][Pt]([NH2])([Cl])[Cl] [CDDP, cisplatin]
proportion of TUNEL-positive cells, U87MG.ΔEGFR lower than U87MG, U87MG.DK or U87MG.wtEGFR (U87MG.ΔEGFR cells [5]; CDDP 5 μg/ml for 2 days, p<0.001): more than 5 fold lower
IC50 value (survival) of U87MG.ΔEGFR cells relative to parental U87MG cells (U87MG.ΔEGFR cells [6]): 4.3 fold
caspase-3-like protease activity relative to basal activity (caspase-3-like proteases; U87MG parental cells): 5.3 fold
caspase-3-like protease activity relative to basal activity (caspase-3-like proteases; U87MG.DK cells): 4.7 fold
caspase-3-like protease activity relative to basal activity (caspase-3-like proteases; U87MG.wtEGFR cells): 6.4 fold
caspase-3-like protease activity relative to basal activity (caspase-3-like proteases; U87MG.ΔEGFR cells): 2.0 fold
cleavage of 116-kDa full-length PARP into 85-kDa fragment (PARP; U87MG, U87MG.DK and U87MG.wtEGFR cells, 24 hr after CDDP): observed
cleavage of 116-kDa full-length PARP into 85-kDa fragment (PARP; U87MG.ΔEGFR cells, 48 hr after CDDP): trace levels
Bcl-XL expression level during CDDP treatment (Bcl-XL; U87MG, U87MG.DK and U87MG.wtEGFR cells, continuous exposure for more than 24 hr): equally decreased
Bcl-XL expression level during CDDP treatment (Bcl-XL; U87MG.ΔEGFR cells): remained unchanged

COc1cc2ncnc(Nc3cccc(Cl)c3)c2cc1OC [AG1478]
apoptosis induction, tyrphostin in combination with CDDP (U87MG.ΔEGFR cells [5]; U87MG.ΔEGFR cells, CDDP 5 μg/ml for 2 days, concentrations per FIG. 6B): significant apoptosis in a dose-dependent and synergistic manner
CDDP-induced caspase activation on co-treatment with tyrphostin (caspase-3-like proteases; U87MG.ΔEGFR cells): enhanced
Bcl-XL expression (Bcl-XL; U87MG.ΔEGFR cells, 15 μM): marked reduction

EGF: epidermal growth factor administered with cisplatin (NSDSECPLSHDGYCLHDGVCMYIEALDKYACNCVVGYIGERCQYRDLKWWELR; Epidermal growth factor; UniProt P01133 971-1023, looked up)
cisplatin-induced tumor cell kill (final tumor volume) (tumors): significantly enhance

N#CC(C#N)=Cc1cc(O)c(O)c(O)c1 [RG 50875]
DNA synthesis induced by growth factors (EGF, PDGF; serum for the tyrphostins) (glioma cell): dose-dependently inhibit
cytotoxicity to the cells (glioma cell): no cytotoxic side effects
selectivity in blocking either EGF or PDGF signaling (glioma cell): no selectivity
serum-driven cell growth (glioma cell): inhibit

O=C(O)C[C@H](NC(=O)OCc1ccccc1)C(=O)COC(=O)c1c(Cl)cccc1Cl [Z-Asp-CH2-DCB]
effect on CDDP-induced apoptosis (U87MG.ΔEGFR cells [5]; cells treated with CDDP in the presence of the inhibitor, data not shown): significant inhibition
caspase-3-like protease activity of cells treated with CDDP in the presence of the inhibitor (caspase-3-like proteases; 200 μM prior to and during CDDP treatment, U87MG and sublines): did not exhibit an increase

CN[C@@H]1C[C@H]2O[C@@](C)([C@@H]1OC)n1c3ccccc3c3c4c(c5c6ccccc6n2c5c31)C(=O)N[C@H]4O [UCN-01, seven-hydroxystaurosporine]
combination with 1,3-bis(2-chloroethyl)-1-nitrosourea, inhibition of glioma cell proliferation [7]: additive effects
combination with cisplatin, inhibition of glioma cell proliferation [7]: synergistic effects
activity against U-87 glioma xenografts (U-87 glioma xenografts): significant activity

Ac-Asp-Glu-Val-Asp-aldehyde (Ac-DEVD-aldehyde) [Ac-DEVD-CHO]
effect on increased caspase activities of lysates from CDDP-treated cells (caspase-3-like protease): completely abolished
